Results taken from patent US20260199325A1, “NOVEL SUBSTITUTED PYRAZINE-CARBOXAMIDE-IMIDAZOPYRIDINE DERIVATIVES” (Boehringer Ingelheim International GmbH, priority 2022, published 2026).

Molecular target: T1, human metabotropic Glutamate 4 receptor (Homo sapiens, UniProt Q14833)
T1 construct: expressed in transfected cells; host or cells: HEK293
Assay: In vitro testing of mGluR4 potency (Assay A), cAMP HTRF in HEK293 cells
Type: cell-based
Settings: for IC50: HEK293 cell overexpressing human mGluR4, 10 uM L-Glutamic acid, 1 uM forskolin
Method: A. In Vitro Testing of mGluR4 Potency
The in vitro activity of the compounds according to the invention may be investigated as follows:
The HEK293 cell overexpressing the human metabotropic Glutamate 4 receptor were thawed at 37° C. and immediately diluted with cell culture medium. After centrifugation, the cell pellet is re-suspended in medium and then distributed from a stirred spinner flask into the wells of the assay plate. The plates are incubated for one hour at room temperature before they are incubated for 24 hours at 37° C./5% C02. After washing the cells in the plate three times with 80 uL HBSS/HEPES buffer (10 uL buffer remained in the wells after washing), 5 uL per well of compounds diluted in HBSS/HEPES buffer containing 0.2% BSA (final concentration: 0.1%) and 1 mM IBMX (final concentration: 0.5 mM) are added to the wells of the assay plate. Thereafter 5 uL per well of L-Glutamic acid (final concentration: 10 uM), forskolin (final concentration: 1 uM) and 1 mM IBMX (final concentration: 0.5 mM) dissolved in HBSS/HEPES buffer containing 0.2% BSA (final concentration: 0.1%) are added to the assay plate (final DMSO concentration: 1%). Several wells of the assay plate are used either for the positive and the negative controls or for the cAMP standard curve. The assay plate is incubated for 30 minutes at room temperature. Then 5 ul per well of Anti-cAMP-Antibody-d2 solution and 5 ul per well of cAMP-Europium Cryptate dilution are added to all wells of the plate and the plate is incubated another 60 minutes light protected at room temperature. The emission at 615 nm and 665 nm (Excitation wavelength: 320 nm) are measured on the EnVision™ reader (PerkinElmer). The ratio between the emission at 665 nm and 615 is calculated by the reader. The whole assay is performed in the dark or under green light.
The cAMP standard is prepared by diluting the cAMP stock solution with HBSS/Hepes buffer: 5 μl/well of the cAMP dilutions (in HBSS/Hepes buffer containing 1 mM IBMX and 0.2% BSA-final concentration: 0.5 mM IBMX and 0.1% BSA) are added to 10 ul/well HBSS/Hepes buffer plus 5 ul/well 4% DMSO in HBSS/Hepes containing 0.2% BSA (final DMSO concentration: 1%-like in the wells containing compounds) in the wells of the assay plate. The final cAMP concentrations in the assay plate were: 0, 0.17, 0.69, 2.78, 11.1, 44.5, 178, and 712 nM (two wells/cAMP concentration).
Each assay microtiter plate contained also wells with vehicle controls instead of compound as controls for L-Glutamic acid induced signal (negative control; 100% CTL; 10 uM L-Glutamic acid+1 uM forskolin+0.5 mM IBMX+1% DMSO) and wells with vehicle controls without L-Glutamic acid as controls for non-specific changes in signal (positive control; 0% CTL; 0 uM L-Glutamic acid+1 uM forskolin+0.5 mM IBMX+1% DMSO).
The analysis of the data is performed by the calculation the ratio between the emission at 665 nm and the emission at 615 nm (Em665/Em615 ratio). Thereafter the signals of the compounds are normalized using the positive and negative controls by the following formula:
PoC=100×((Signal Sample−Positive Control)/(Negative Control−Positive Control))

T1 sequence (Q14833 33-912): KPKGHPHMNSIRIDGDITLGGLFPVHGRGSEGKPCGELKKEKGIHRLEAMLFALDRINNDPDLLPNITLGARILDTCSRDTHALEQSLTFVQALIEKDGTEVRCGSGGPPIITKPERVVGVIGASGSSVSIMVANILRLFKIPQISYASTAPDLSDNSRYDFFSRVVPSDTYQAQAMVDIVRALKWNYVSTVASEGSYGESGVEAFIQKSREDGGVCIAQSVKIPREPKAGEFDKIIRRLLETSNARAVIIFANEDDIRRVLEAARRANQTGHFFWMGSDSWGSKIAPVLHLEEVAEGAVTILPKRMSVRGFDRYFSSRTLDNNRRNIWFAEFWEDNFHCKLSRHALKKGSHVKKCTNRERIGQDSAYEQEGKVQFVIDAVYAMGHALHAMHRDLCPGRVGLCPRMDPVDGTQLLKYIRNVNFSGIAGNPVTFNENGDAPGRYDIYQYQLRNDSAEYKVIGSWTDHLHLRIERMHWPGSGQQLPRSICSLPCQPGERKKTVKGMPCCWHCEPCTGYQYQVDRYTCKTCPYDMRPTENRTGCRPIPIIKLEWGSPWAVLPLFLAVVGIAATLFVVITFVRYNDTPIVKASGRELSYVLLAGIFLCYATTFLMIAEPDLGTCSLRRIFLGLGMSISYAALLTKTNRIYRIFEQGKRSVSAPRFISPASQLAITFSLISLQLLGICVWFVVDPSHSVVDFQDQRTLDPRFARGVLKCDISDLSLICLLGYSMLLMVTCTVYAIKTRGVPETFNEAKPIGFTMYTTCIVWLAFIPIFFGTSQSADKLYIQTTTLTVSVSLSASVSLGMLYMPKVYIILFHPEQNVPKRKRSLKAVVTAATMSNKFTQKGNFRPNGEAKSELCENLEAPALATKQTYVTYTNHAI

| Compound | IC50 (Table 2) [µM] | activity as mGluR4 modulators in Assay A (in words) | IC50 (Table 1) [µM] |
| --- | --- | --- | --- |
| Cc1nc(C(F)(F)F)cc2c1nc([C@@H](NC(=O)c1cnc(C(F)F)cn1)C1CC1)n2C(C)C [Example 22, N-[(S)-cyclopropyl[4-methyl-1-(propan-2-yl)-6-(trifluoromethyl)-1H-imidazo[4,5-c]pyridin-2-yl]methyl]-5-(difluoromethyl)pyrazine-2-carboxamide] | 0.01 | – | – |
| Cc1cnc(C(=O)N[C@H](c2nc3cc(Cl)cnc3n2C(C)C)C2(O)CCC2)cn1 [Example 25, N-[(R)-[6-chloro-3-(propan-2-yl)-3H-imidazo[4,5-b]pyridin-2-yl](1-hydroxycyclobutyl)methyl]-5-methylpyrazine-2-carboxamide] | 0.012 | – | – |
| Cc1cnc(C(=O)N[C@@H](CC2CC2)c2nc3cc(C(F)(F)F)cnc3n2C(C)C)cn1 [Example 6, N-[(1S)-2-cyclopropyl-1-[3-(propan-2-yl)-6-(trifluoromethyl)-3H-imidazo[4,5-b]pyridin-2-yl]ethyl]-5-methylpyrazine-2-carboxamide] | 0.002 | – | – |
| Cn1nccc1C(=O)N[C@H](c1nc2ccc(Br)nc2[nH]1)[C@H]1CC[C@H](C)CC1 [Intermediate 213 in WO2019/138017 (regioisomere 2), reference compound] | – | no therapeutically relevant activity | 13.2 |
